Measurements as given in patent publication US20120322125A1, “CONTROL OF CONTAMINANT MICROORGANISMS IN FERMENTATION PROCESSES WITH SYNERGISTIC FORMULATIONS CONTAINING PEROXIDE COMPOUND AND QUATERNARY AMMONIUM COMPOUND” (E. I. DU PONT DE NEMOURS AND COMPANY, priority 2010, published 2012).

Experiments:
[1] = tested on: lactic acid bacteria (LAB) species (Lactobacillus brevis, Lactobacillus plantarum, Lactobacillus paracasei); test: Viable count of lactic acid bacteria cocktail in treated molasses medium; type: cell-based; settings: for Viable Population: LAB in molasses medium, 32° C.
Protocol: (§1) A fermentation broth was prepared by diluting 1 part molasses with 3 parts water as is commonly practiced in molasses-based fermentation processes. A cocktail of three lactic acid bacteria (LAB) species (Lactobacillus brevis, Lactobacillus plantarum, Lactobacillus paracasei) was concurrently prepared by growing an overnight culture of each bacteria in deMann-Rogosa-Sharpe (MRS) broth (available from Difco Laboratories, Inc., Sparks, Md.) at 32° C. in a shaking incubator, then combining the broth to make up a mixed culture. A separate overnight culture of Saccharomyces cerevisiae (inoculant yeast) was prepared by growing an overnight culture in Yeast Peptone Dextrose (YPD) broth (available from Difco Laboratories Inc., Sparks, Md.). A potion of the molasses medium was inoculated with the cocktail of LAB to result in approximately 1×10^6 colony forming units (CFU) per ml of medium. A separate portion was inoculated with the yeast to result in approximately 6×10^5 CFU/ml. Portions of the inoculated molasses medium were treated with hydrogen peroxide (HP), quaternary ammonium compound (didecyl dimethyl ammonium chloride) or combinations of the two as outlined below:
(§2) Treated samples were incubated at 32° C. in a shaking incubator, following which serial dilutions were made in phosphate buffered saline (PBS) before plating the dilutions on MRS agar and Potato Dextrose Agar (PDA) plates for viable count determination. The plates were incubated at 32° C. for 48 hrs.

[2] = tested on: Saccharomyces cerevisiae (inoculant yeast); test: Viable count of inoculant yeast in treated molasses medium; type: cell-based; settings: for Viable Population: S. cerevisiae in molasses medium, 32° C.
Protocol: as §1, §2

Row | Structure (SMILES) | Viable Population ([1]; 75 ppm HP) | reduction of the viable LAB population ([1]; 100 ppm HP by itself) | Viable Population ([1]; 100 ppm HP) | Viable Population ([2]; 100 ppm QAC) | Viable Population ([2]; 150 ppm QAC) | effects on the viability of the inoculant yeast ([2]; similar concentrations of QAC and HP, alone or combined) | reduction of the LAB population ([1]; 100 ppm QAC by itself) | Viable Population ([1]; 100 ppm QAC) | Viable Population ([1]; 150 ppm QAC)
1 | OO [HP, hydrogen peroxide] | 4.5 × 10^5 CFU/ml | about 1 log CFU/ml | 8.1 × 10^4 CFU/ml |  |  |  |  |  | 
2 | CCCCCCCCCC[N+](C)(C)CCCCCCCCCC.[Cl-] [QAC, didecyl dimethyl ammonium chloride] |  |  |  | 5.0 × 10^5 CFU/ml | 3.5 × 10^5 CFU/ml | did not have any significant effects | did not reduce | 1.19 × 10^6 CFU/ml | 1.16 × 10^6 CFU/ml
